In patent EP4631937A1, “CRYSTALLINE FORM OR AMORPHOUS FORM OF OXOISOINDOLE-5-FORMAMIDE COMPOUND OR SALT AND SOLVATE THEREOF” (Hangzhou Glubio Pharmaceutical Co., Ltd., priority 2022, dated 2024):

Legend:
[1] = Stability test of crystalline forms (open container at 25°C/92% RH and 40°C/75% RH, sealed container at 60°C, 13 days; XRPD, HPLC, colour); type: physicochemical; details: initial, before storage; listed as Crystalline form G
Experimental: Placed in a open container at 25°C/92% RH and 40°C/75% RH for 13 days, respectively, or in a sealed container at 60°C for 13 days. […]
(§1) Placed in a open container at 25 °C/92% RH and 40 °C/75% RH for 13 days, respectively, or in a sealed container at 60 °C for 13 days. […]
as §1

[2] = Pharmacokinetic evaluation in mice by gavage; type: in vivo; set-up: AUClast /D: unit not given here; details: CD1 male mice, oral, 30 mg/kg, 25 mM citrate buffer (pH 3) containing 5% Tween 80
Experimental: CD1 male mice were selected and the test compound was administered orally. The drug concentration in plasma at different time points was quantitatively determined by LC/MS/MS to evaluate the pharmacokinetic characteristics of the test drug in mice.
Experimental materials: CD1 Mouse (male, 20-30 g, 6-8 weeks old, Zhejiang Weitong Lihua).
Blood was collected from the dorsal plantar vein at 0.25 h, 0.5 h, 1 h, 2 h, 4 h, 6 h, 8 h and 24 h after administration, placed in an anticoagulant tube containing EDTA-K2 and mixed, and centrifuged at 4°C and 4000 g for 5 minutes. The drug concentration in blood was determined by LC-MS/MS, and the relevant pharmacokinetic parameters were calculated by the non-compartmental linear/log trapezoidal method using Phoenix WinNonlin 6.3 pharmacokinetic software.

[3] = Simulated tableting experiment (XRPD after pressing); type: physicochemical
Experimental: About 10 mg of crystalline form G was weighed and pressed at 2 MPa, 5 MPa or 10 MPa for 5 min. The crystal transformation and the change of crystallinity were investigated by XRPD characterization.

[4] = Hygroscopicity test by DVS, with XRPD after DVS; type: physicochemical; details: 25 °C, listed as Crystalline form G
Experimental: • DVS Intrinsic Dynamic Vapor Sorption Instrument • Gas flow rate 200 sccm, furnace temperature 25 °C.
(§2) The hygroscopicity and dehydration behavior of crystalline form B was investigated by DVS. Humidity program: 25 °C, 40-0-95-0-40% RH, dm/dt 0.002, shortest equilibrium time was 60 min, and longest equilibrium time was 360 min. XRPD was also performed on the samples after DVS test to determine whether the crystal transformation occurred.
as §2, with “E” for “B”
as §2, with “G” for “B”

[5] = Stability test of crystalline forms (open container at 25°C/92% RH and 40°C/75% RH, sealed container at 60°C, 13 days; XRPD, HPLC, colour); type: physicochemical; details: Solid, 1 week, listed as Crystalline form G; for Chemical purity / Chiral purity: HPLC/SFC

For O=C1CC[C@H](N2Cc3cc(C(=O)N[C@H](c4ccc(Cl)cn4)C4CCC4)ccc3C2=O)C(=O)N1 [crystalline form G, N-((S)-(5-chloropyridin-2-yl)(cyclobutyl)methyl)-2-((S)-2,6-dioxopiperidin-3-yl)-1-oxoisoindoline-5-carboxamide], the “Initial purity (HPLC/SFC) Chemical purity” value [1] was 99.7%, the “Initial purity (HPLC/SFC) Chiral purity” value [1] was 97.6% and the “AUClast /D” value ([2]; dose-normalised) was 306 ± 35. The AUC(0-inf) ([2]; mouse, plasma) was 10700 ± 2100 ng·h/mL, the AUC(0-t) ([2]; mouse, plasma) was 9170 ± 1050 ng·h/mL and the Cmax ([2]; mouse, plasma) was 1370 ± 365 ng/mL. For the same compound, the Tmax ([2]; mouse, plasma) was 0.42 h, the half-life ([2]; mouse, plasma) was 8.7 h and the “Notes (change of crystallinity)” value ([3]; pressed at 2 MPa for 5 min) was “No significant change in crystallinity”. For the same compound, the XRPD ([3]; pressed at 2 MPa for 5 min) was “Crystalline form G, see Figure 21a”, the “Notes (change of crystallinity)” value ([3]; pressed at 5 MPa for 5 min) was “No significant change in crystallinity” and the XRPD ([3]; pressed at 5 MPa for 5 min) was “Crystalline form G, see Figure 21a”. The “Notes (change of crystallinity)” value ([3]; pressed at 10 MPa for 5 min) was “No significant change in crystallinity”, the XRPD ([3]; pressed at 10 MPa for 5 min) was “Crystalline form G, see Figure 21a” and the change in crystallinity ([3]; tableted at 2 MPa, 5 MPa and 10 MPa pressures) was “no significant change in crystallinity was observed”. For the same compound, the “1st adsorption weight change percentage” value ([4]; relative humidity 0%) was 0.0%, the “1st desorption weight change percentage” value ([4]; relative humidity 0%) was 0.0% and the “1st adsorption weight change percentage” value ([4]; relative humidity 10%) was 0.0%. The “1st desorption weight change percentage” value ([4]; relative humidity 10%) was 0.1%, the “2nd adsorption weight change percentage” value ([4]; relative humidity 10%) was 0.0% and the “2nd desorption weight change percentage” value ([4]; relative humidity 10%) was 0.1%. For the same compound, the “1st adsorption weight change percentage” value ([4]; relative humidity 20%) was 0.0%, the “1st desorption weight change percentage” value ([4]; relative humidity 20%) was 0.1% and the “2nd adsorption weight change percentage” value ([4]; relative humidity 20%) was 0.0%. The “2nd desorption weight change percentage” value ([4]; relative humidity 20%) was 0.1%, the “1st adsorption weight change percentage” value ([4]; relative humidity 30%) was 0.1% and the “1st desorption weight change percentage” value ([4]; relative humidity 30%) was 0.2%. The “2nd adsorption weight change percentage” value ([4]; relative humidity 30%) was 0.1%, the “2nd desorption weight change percentage” value ([4]; relative humidity 30%) was 0.2% and the “1st adsorption weight change percentage” value ([4]; relative humidity 40%) was 0.1%. For the same compound, the “1st desorption weight change percentage” value ([4]; relative humidity 40%) was 0.3%, the “2nd adsorption weight change percentage” value ([4]; relative humidity 40%) was 0.1% and the “2nd desorption weight change percentage” value ([4]; relative humidity 40%) was 0.3%. For the same compound, the “1st adsorption weight change percentage” value ([4]; relative humidity 50%) was 0.2%, the “2nd desorption weight change percentage” value ([4]; relative humidity 50%) was 0.3% and the “1st adsorption weight change percentage” value ([4]; relative humidity 60%) was 0.2%. For the same compound, the “2nd desorption weight change percentage” value ([4]; relative humidity 60%) was 0.4%, the “1st adsorption weight change percentage” value ([4]; relative humidity 70%) was 0.3% and the “2nd desorption weight change percentage” value ([4]; relative humidity 70%) was 0.4%. The “1st adsorption weight change percentage” value ([4]; relative humidity 80%) was 0.3%, the “2nd desorption weight change percentage” value ([4]; relative humidity 80%) was 0.5% and the “1st adsorption weight change percentage” value ([4]; relative humidity 90%) was 0.5%. For the same compound, the “2nd desorption weight change percentage” value ([4]; relative humidity 90%) was 0.5%, the “1st adsorption weight change percentage” value ([4]; relative humidity 95%) was 0.7% and the “2nd desorption weight change percentage” value ([4]; relative humidity 95%) was 0.7%. For the same compound, the “XRPD after DVS test” value ([4]; after 40-0-95-0-40% RH) was “The crystal form did not change, see Figure 20b”, the “moisture adsorbed (DVS)” value ([4]; under 40%RH-95%RH) was 0.6% of moisture was adsorbed under 40%RH-95%RH, see Figure 20a and the Chemical purity ([5]; 25 °C/92% RH, open container) was 99.4%. The Chiral purity ([5]; 25 °C/92% RH, open container) was 97.8%, the “Solid (XRPD)” value ([5]; 25 °C/92% RH, open container) was “The crystal form did not change, see Figure 17c” and the Chemical purity ([5]; 40 °C/75% RH, open container) was 99.5%. The Chiral purity ([5]; 40 °C/75% RH, open container) was 97.8%, the “Solid (XRPD)” value ([5]; 40 °C/75% RH, open container) was “The crystal form did not change, see Figure 17c” and the Chemical purity ([5]; 60 °C, sealed container) was 99.5%. For the same compound, the Chiral purity ([5]; 60 °C, sealed container) was 97.7% and the “Solid (XRPD)” value ([5]; 60 °C, sealed container) was “The crystal form did not change, see Figure 17c”.
